Data taken from patent US11534457B2, “Use of dextran sulfate” (priority 2017, dated 2022).

Test system: severe traumatic brain injury (sTBI)
Assay: sTBI in rats, brain gene expression arrays and pathway analysis (Example 9)
Assay type: in vivo, Male Wistar rats
Description: The experimental protocol used in this study was approved by the Ethical Committee of the Catholic University of Rome, according to international standards and guidelines for animal care. Male Wistar rats of 300-350 g body weight were fed with standard laboratory diet and water ad libitum in a controlled environment. As the anesthetic mixture, the animals received 35 mg/kg b.w. ketamine and 0.25 mg/kg body weight midazolam by i.p. injection. Severe traumatic brain injury (sTBI) was induced by dropping a 450 g weight from 2 m height on to the rat head that had been protected by a metal disk previously fixed on the skull, according to the “weight drop” impact acceleration model (Marmarou et al., A new model of diffuse brain injury in rats. Part I: Pathophysiology and biomechanics. J Neurosurg. 1994; 80: 291-300). […] At the end of each period of treatment, rats were anesthetized again and then immediately sacrificed.
LMW-DS (Tikomed AB) was provided at a stock concentration of 20 mg/ml and was kept in a temperature-monitored refrigerator at 4° C. LMW-DS aliquots were diluted to the appropriate dosing concentration in sterile saline prior to delivery of a single subcutaneous injection.
Three doses of LMW-DS were administered subcutaneously 30 minutes post-TBI. The animals were sacrificed at 2 days post-TBI. The animals were divided into the following subgroups:
Three doses of LMW-DS were administered subcutaneously 30 minutes post-TBI. The animals were sacrificed at 7 days post-TBI. The animals were divided into the following subgroups:
An in vivo craniectomy was performed on all animals during anesthesia. After carefully removing the rat's skull, the brain was exposed and removed with a surgical spatula and quickly dropped in RNALater and preserved at 4° C. for further processing.
RNA extraction and array processing was carried out by SourceBioscience. The arrays used were the Agilent Rat expression arrays.
Statistical analysis was carried out using the Metaboanalyst software package. Gene expression changes of 10% with a p<0.05 were regarded as significant.
Pathway analysis of the differentially regulated genes was carried out using the Ingenuity pathway analysis package. The analysis was performed with special reference to pathways and molecular processes and diseases associated with neurodegenerative disease, including dementia, Alzheimer's disease, ALS, TBI and stroke, and with scarring and fibrosis, including glaucoma and normal pressure hydrocephalus (NPH) after subarachnoid haemorrhage.

[1] = TBI + 1 mg/kg LMW-DS, 2 days after TBI
[2] = TBI + 1 mg/kg LMW-DS, 7 days after TBI
[3] = TBI + 1 mg/kg LMW-DS, 7 days after TBI, relative to control
[4] = TBI + 1 mg/kg LMW-DS, after 7 days, TBI: Activated
[5] = TBI + 1 mg/kg LMW-DS, after 7 days, TBI: Inhibited
[6] = TBI + 5 mg/kg LMW-DS, 2 days after TBI
[7] = TBI + 5 mg/kg LMW-DS, 7 days after TBI

low molecular weight dextran sulfate [LMW-DS]
0.033: z score: Synthesis of lipid [2]
0.991: z score: Cell viability of tumor cell lines [7]
Activated: Diseases or functions annotation: Migration of cells [1] | Diseases or functions annotation: Quantity of connective tissue cells [1] | Diseases or functions annotation: Synthesis of hormone [1] | Diseases or functions annotation: Thrombus [1] | Diseases or functions annotation: Transport of molecule [1] | Ingenuity canonical pathway: Endothelin-1 Signaling [2] | Ingenuity canonical pathway: G Beta Gamma Signaling [2] | Ingenuity canonical pathway: Role of NFAT in Regulation of the Immune Response [2] | Ingenuity canonical pathway: Synaptic Long Term Depression [2] | Diseases or functions annotation: Vaso-occlusion [4] | Diseases or functions annotation: Quantity of carbohydrate [5] | Diseases or functions annotation: Quantity of metal [5] | Diseases or functions annotation: Synthesis of lipid [5] | Diseases or functions annotation: Weight gain [5] | Diseases or functions annotation: Apoptosis [6] | Diseases or functions annotation: Cell death [6] | Diseases or functions annotation: Edema [6] | Diseases or functions annotation: Secretion of molecule [6] | Diseases or functions annotation: Transport of molecule [6] | Ingenuity canonical pathway: Acute Phase Response Signaling [7] | Ingenuity canonical pathway: Cardiac Hypertrophy Signaling [7] | Ingenuity canonical pathway: Dendritic Cell Maturation [7] | Ingenuity canonical pathway: ERK/MAPK Signaling [7] | Ingenuity canonical pathway: Endothelin-1 Signaling [7] | Ingenuity canonical pathway: Fcγ Receptor-mediated Phagocytosis in Macrophages and Monocytes [7] | Ingenuity canonical pathway: GNRH Signaling [7] | Ingenuity canonical pathway: HMGB1 Signaling [7] | Ingenuity canonical pathway: IL-1 Signaling [7] | Ingenuity canonical pathway: IL-6 Signaling [7] | Ingenuity canonical pathway: IL-8 Signaling [7] | Ingenuity canonical pathway: ILK Signaling [7] | Ingenuity canonical pathway: Leukocyte Extravasation Signaling [7] | Ingenuity canonical pathway: Neuroinflammation Signaling Pathway [7] | Ingenuity canonical pathway: PI3K Signaling in B Lymphocytes [7] | Ingenuity canonical pathway: PKCθ Signaling in T Lymphocytes [7] | Ingenuity canonical pathway: Phospholipase C Signaling [7] | Ingenuity canonical pathway: Production of Nitric Oxide and Reactive Oxygen Species in Macrophages [7] | Ingenuity canonical pathway: Role of NFAT in Regulation of the Immune Response [7] | Ingenuity canonical pathway: Signaling by Rho Family GTPases [7] | Ingenuity canonical pathway: Synaptic Long Term Depression [7] | Ingenuity canonical pathway: mTOR Signaling [7]
0.294: z score: Angiogenesis [7]
−0.537: z score: Malignant genitourinary solid tumor [2]
1.879: z score: Cell viability [7]
−0.831: z score: Abdominal carcinoma [7]
−1.981: z score: Tumorigenesis of epithelial neoplasm [2]
1.993: z score: Cell death of epithelial cells [7]
−1.029: z score: Gastrointestinal tumor [2]
−0.474: z score: Abdominal cancer [7]
−1.192: z score: Large intestine neoplasm [2]
0.49: z score: Quantity of carbohydrate [2]
−1.01: z score: Cell movement [2]
1.966: z score: Cell survival [7]
−2.118: z score: Bleeding [7]
−1.799: z score: Differentiation of bone cells [2]
0.415: z score: Quantity of metal [2]
−2.426: z score: Abdominal cancer [2]
0.905: z score: Cancer [7]
0.061: z score: Abdominal neoplasm [7]
−1.313: z score: Epithelial neoplasm [2]
−0.152: z score: Developmental process of synapse [2] | z score: Formation of plasma membrane [2]
1.264: z score: Vaso-occlusion [2]
−0.676: z score: Apoptosis [7]
2.297: z score: Cell movement [7]
−0.155: z score: Adenocarcinoma [7]
−1.396: z score: Digestive organ tumor [2]
−0.998: z score: Tumorigenesis of tissue [2]
−1.214: z score: Pelvic tumor [2]
0.625: z score: Weight gain [2]
−1.326: z score: Development of malignant tumor [2]
−2.128: z score: Frequency of tumor [2]
−1: Ingenuity canonical pathway Adrenomedullin signaling pathway, z score [3]
−0.005: z score: Development of connective tissue cells [2]
−1.91: z score: Liver tumor [2]
−0.447: Ingenuity canonical pathway NF-κB Signaling, z score [3] | Ingenuity canonical pathway Opioid Signaling Pathway, z score [3]
−1.026: z score: Breast or pancreatic cancer [7]
1.342: Ingenuity canonical pathway Endothelin-1 Signaling, z score [3] | Ingenuity canonical pathway Synaptic Long Term Depression, z score [3]
Inhibited: Diseases or functions annotation: Necrosis [1] | Diseases or functions annotation: Non-hematologic malignant neoplasm [1] | Diseases or functions annotation: Pelvic tumor [1] | Diseases or functions annotation: Proliferation of blood cells [1] | Diseases or functions annotation: Proliferation of lymphatic system cells [1] | Diseases or functions annotation: Proliferation of lymphocytes [1] | Diseases or functions annotation: Quantity of blood cells [1] | Diseases or functions annotation: Quantity of bone [1] | Diseases or functions annotation: Quantity of cells [1] | Diseases or functions annotation: Quantity of leukocytes [1] | Diseases or functions annotation: Quantity of lymphatic system cells [1] | Diseases or functions annotation: Quantity of phagocytes [1] | Diseases or functions annotation: Rheumatic Disease [1] | Diseases or functions annotation: Solid tumor [1] | Diseases or functions annotation: Survival of organism [1] | Ingenuity canonical pathway: Adrenomedullin signaling pathway [2] | Ingenuity canonical pathway: ERK5 Signaling [2] | Ingenuity canonical pathway: NF-κB Signaling [2] | Ingenuity canonical pathway: Opioid Signaling Pathway [2] | Diseases or functions annotation: Development of malignant tumor [4] | Diseases or functions annotation: Digestive organ tumor [4] | Diseases or functions annotation: Frequency of tumor [4] | Diseases or functions annotation: Gastrointestinal tumor [4] | Diseases or functions annotation: Hematologic cancer [4] | Diseases or functions annotation: Hematopoietic neoplasm [4] | Diseases or functions annotation: Incidence of tumor [4] | Diseases or functions annotation: Large intestine neoplasm [4] | Diseases or functions annotation: Abdominal cancer [5] | Diseases or functions annotation: Abdominal carcinoma [5] | Diseases or functions annotation: Cell movement [5] | Diseases or functions annotation: Cell viability [5] | Diseases or functions annotation: Concentration of hormone [5] | Diseases or functions annotation: Development of connective tissue cells [5] | Diseases or functions annotation: Developmental process of synapse [5] | Diseases or functions annotation: Differentiation of bone cells [5] | Diseases or functions annotation: Differentiation of connective tissue cells [5] | Diseases or functions annotation: Digestive system cancer [5] | Diseases or functions annotation: Epithelial neoplasm [5] | Diseases or functions annotation: Formation of plasma membrane [5] | Diseases or functions annotation: Liver tumor [5] | Diseases or functions annotation: Malignant genitourinary solid tumor [5] | Diseases or functions annotation: Metabolism of hormone [5] | Diseases or functions annotation: Pelvic tumor [5] | Diseases or functions annotation: Quantity of Ca^2+ [5] | Diseases or functions annotation: Tumorigenesis of epithelial neoplasm [5] | Diseases or functions annotation: Tumorigenesis of tissue [5] | Diseases or functions annotation: Abdominal cancer [6] | Diseases or functions annotation: Abdominal carcinoma [6] | Diseases or functions annotation: Abdominal neoplasm [6] | Diseases or functions annotation: Behavior [6] | Diseases or functions annotation: Carcinoma [6] | Diseases or functions annotation: Cell death of antigen presenting cells [6] | Diseases or functions annotation: Cell death of immune cells [6] | Diseases or functions annotation: Cell death of tumor cell lines [6] | Diseases or functions annotation: Cell movement [6] | Diseases or functions annotation: Cell movement of tumor cell lines [6] | Diseases or functions annotation: Cell proliferation of leukocyte cell lines [6] | Diseases or functions annotation: Cellular homeostasis [6] | Diseases or functions annotation: Chemotaxis [6] | Diseases or functions annotation: Concentration of prostaglandin [6] | Diseases or functions annotation: Development of vasculature [6] | Diseases or functions annotation: Digestive organ tumor [6] | Diseases or functions annotation: Digestive system cancer [6] | Diseases or functions annotation: Epithelial neoplasm [6] | Diseases or functions annotation: Extracranial solid tumor [6] | Diseases or functions annotation: Feeding [6] | Diseases or functions annotation: Growth of tumor [6] | Diseases or functions annotation: Hematologic cancer [6] | Diseases or functions annotation: Incidence of tumor [6] | Diseases or functions annotation: Leukocyte migration [6] | Diseases or functions annotation: Leukopoiesis [6] | Diseases or functions annotation: Locomotion [6] | Diseases or functions annotation: Lymphocyte homeostasis [6] | Diseases or functions annotation: Lymphocytic cancer [6] | Diseases or functions annotation: Lymphocytic neoplasm [6] | Diseases or functions annotation: Lymphopoiesis [6] | Diseases or functions annotation: Lymphoproliferative disorder [6] | Diseases or functions annotation: Malignant solid tumor [6] | Diseases or functions annotation: Metabolism of hormone [6] | Diseases or functions annotation: Migration of cells [6] | Diseases or functions annotation: Necrosis [6] | Diseases or functions annotation: Neoplasia of leukocytes [6] | Diseases or functions annotation: Non-melanoma solid tumor [6] | Diseases or functions annotation: Proliferation of hematopoietic progenitor cells [6] | Diseases or functions annotation: Quantity of cells [6] | Diseases or functions annotation: Quantity of epithelial tissue [6] | Diseases or functions annotation: Quantity of neuroglia [6] | Diseases or functions annotation: Resorption of bone [6] | Diseases or functions annotation: Size of body [6] | Diseases or functions annotation: Synthesis of hormone [6] | Diseases or functions annotation: Transcription of RNA [6] | Diseases or functions annotation: Vasculogenesis [6] | Ingenuity canonical pathway: Adrenomedullin signaling pathway [7] | Ingenuity canonical pathway: Colorectal Cancer Metastasis Signaling [7] | Ingenuity canonical pathway: ERK5 Signaling [7] | Ingenuity canonical pathway: Osteoarthritis Pathway [7] | Ingenuity canonical pathway: PPAR Signaling [7] | Ingenuity canonical pathway: Protein Kinase A Signaling [7] | Ingenuity canonical pathway: Wnt/β-catenin Signaling [7] | Ingenuity canonical pathway: cAMP-mediated signaling [7]
−1.066: z score: Metabolism of hormone [2]
0.64: z score: Cancer of secretory structure [7]
−0.686: z score: Hematopoietic neoplasm [2]
−0.403: z score: Carcinoma [7]
3.907: z score: Cell movement of myeloid cells [7]
1.492: z score: Cell movement of tumor cell lines [7]
−1.584: z score: Cell viability [2]
1: Ingenuity canonical pathway G Beta Gamma Signaling, z score [3] | Ingenuity canonical pathway mTOR Signaling, z score [3]
−0.811: z score: Cell death of tumor cell lines [7]
−0.941: z score: Apoptosis of tumor cell lines [7]
−1.953: z score: Breast or colorectal cancer [7] | z score: Breast or ovarian cancer [7]
−1.96: z score: Digestive system cancer [2]
0.73: z score: Abdominal adenocarcinoma [7]
0.816: Ingenuity canonical pathway Role of NFAT in Regulation of the Immune Response, z score [3]
2.084: z score: Cell movement of endothelial cells [7]
−2: Ingenuity canonical pathway ERK5 Signaling, z score [3]
−1.987: z score: Abdominal carcinoma [2]
−0.32: z score: Concentration of hormone [2]
0.742: z score: Cancer of cells [7]
−1.614: z score: Incidence of tumor [2]
1.58: z score: Cell cycle progression [7]
−1.067: z score: Hematologic cancer [2]
−0.349: z score: Differentiation of connective tissue cells [2]
0.791: z score: Cell death [7]
−0.11: z score: Quantity of Ca^2+ [2]
